Experimental findings from patent US11104674B2 (Hoffmann-La Roche Inc., priority 2016, dated 2021) are described below.

The assay has as its system HBsAg. As to the kind of experiment: HBsAg assay (chemiluminescence immunoassay of secreted HBsAg). The class given is cell-based, HBV. To be noted: Hepatitis B virus, HepG2.2.15, HBsAg secretion, HepG2.2.15 cells, CLIA of culture supernatant. The protocol: HepG2.2.15 cells (Acs et al. Proc Natl Acad Sci USA, 84, (1987), 4641-4), a constitutively HBV-expressing cell line were cultured in DMEM+Glutamax-I medium (Invitrogen, Carlsbad, Calif., USA), supplemented with 10% fetal bovine serum (Invitrogen) and G418 (Invitrogen) at a final concentration of 200 mg/L and maintained in 5% CO2 at 37° C.
HepG2.2.15 cells were seeded in duplicate into white, 96-well plates at 1.5×10^4 cells/well. The cells were treated with a three-fold serial dilution series of the compounds in DMSO. The final DMSO concentration in all wells was 1% and DMSO was used as no drug control.
The HBsAg chemiluminescence immunoassay (CLIA) kit (Autobio Diagnostics Co., Zhengzhou, China, Catalog number: CL0310-2) was used to measure the levels of secreted HBV antigens semi-quantitatively. For the detection 50 μL/well culture supernatant was used and HBsAg was quantified using HBsAg chemiluminescence immunoassay (CLIA) kit (Autobio Diagnostics Co., Zhengzhou, China, Catalog number: CL0310-2), 50 μL of the supernatant was transferred to the CLIA assay plate and 50 μL of enzyme conjugate reagent was added into each well. The plates were sealed and gently agitated for 1 hour at room temperature. The supernatant-enzyme-mixture was discarded and wells were washed 6 times with 300 μL of PBS.
The residual liquid was removed by plating the CLIA plate right side down on absorbent tissue paper. 25 μL of substrates A and B were added to each well. Luminance was measured using a luminometer (Mithras LB 940 Multimode Microplate Reader) after 10 minutes incubation. Dose-response curves were generated and the IC50 value was extrapolated by using the E-WorkBook Suite (ID Business Solutions Ltd., Guildford, UK). The IC50 was defined as the compound concentration (or conditioned media log dilution) at which HBsAg secretion was reduced by 50% compared to the no drug control.
The compounds according to formula I were tested for their capacity to inhibit HBsAg as described herein.
On to `CC1COCCN1c1cc(F)cc(N2CCc3nc(-c4ncccn4)ncc3C2C)n1` (stereo not drawn) [Example 41, 4-[4-fluoro-6-(5-methyl-2-pyrimidin-2-yl-7,8-dihydro-5H-pyrido[4,3-d]pyrimidin-6-yl)-2-pyridyl]-3-methyl-morpholine], for which 0.017 µM corresponded to half-maximal inhibition (IC50).

Consider `CC1c2cnc(-c3ccccn3)nc2CCN1c1cc(F)cc(N2CCC(C(=O)O)C2)n1` (stereo not drawn) [Example 67, 1-[4-fluoro-6-[5-methyl-2-(2-pyridyl)-7,8-dihydro-5H-pyrido[4,3-d]pyrimidin-6-yl]-2-pyridyl]pyrrolidine-3-carboxylic acid], for which it took 0.532 µM to reach half-maximal inhibition (IC50).

`CC1c2cnc(-c3ccccn3)nc2CCN1c1cc(F)cc(N2CCCC(C(N)=O)C2)n1` (stereo not drawn) [Example 76, 1-[4-fluoro-6-[5-methyl-2-(2-pyridyl)-7,8-dihydro-5H-pyrido[4,3-d]pyrimidin-6-yl]-2-pyridyl]piperidine-3-carboxamide] displayed an IC50 of 0.044 µM.

For the compound `CC1c2cnc(-c3ccccn3)nc2CCN1c1cc(N2CCC(C(N)=O)C2)cc(F)n1` (stereo not drawn) [Example 62, 1-[2-fluoro-6-[5-methyl-2-(2-pyridyl)-7,8-dihydro-5H-pyrido[4,3-d]pyrimidin-6-yl]-4-pyridyl]pyrrolidine-3-carboxamide], the IC50 amounted to 0.035 µM.

On to `CC1c2cnc(-c3ncccn3)nc2CCN1c1cc(F)cc(N2C3CCC2COC3)n1` (stereo not drawn) [Example 11, 8-[4-fluoro-6-(5-methyl-2-pyrimidin-2-yl-7,8-dihydro-5H-pyrido[4,3-d]pyrimidin-6-yl)-2-pyridyl]-3-oxa-8-azabicyclo[3.2.1]octane], for which inhibition was half-maximal at 0.188 µM (IC50).

Take `CC1c2cnc(-c3ncccn3)nc2CCN1c1cc(F)cc(N2CC(C(=O)O)C2)n1` (stereo not drawn) [Example 53, 1-[4-fluoro-6-(5-methyl-2-pyrimidin-2-yl-7,8-dihydro-5H-pyrido[4,3-d]pyrimidin-6-yl)-2-pyridyl]azetidine-3-carboxylic acid]: 4.71 µM corresponded to half-maximal inhibition (IC50). Compared with the last compound, the IC50 is about 25-fold higher.

`COC1CCN(c2cc(F)cc(N3CCc4nc(-c5ccccn5)ncc4C3C)n2)C1` (stereo not drawn) [Example 84, 6-[4-fluoro-6-(3-methoxypyrrolidin-1-yl)-2-pyridyl]-5-methyl-2-(2-pyridyl)-7,8-dihydro-5H-pyrido[4,3-d]pyrimidine] displayed an IC50 of 0.023 µM. This IC50 is about 200-fold lower than that of the compound before.

`CC1c2cnc(-c3ncccn3)nc2CCN1c1cc(F)nc(N2CC(F)C2)c1` (stereo not drawn) [Example 150, 6-[2-Fluoro-6-(3-fluoroazetidin-1-yl)-4-pyridyl]-5-methyl-2-pyrimidin-2-yl-7,8-dihydro-5H-pyrido[4,3-d]pyrimidine] yielded an IC50 of 0.02 µM.

With `CC1c2cnc(-c3ncccn3)nc2CCN1c1cc(N2CCN(CC(N)=O)CC2)cc(F)n1` (stereo not drawn) [Example 102, 2-[4-[2-fluoro-6-(5-methyl-2-pyrimidin-2-yl-7,8-dihydro-5H-pyrido[4,3-d]pyrimidin-6-yl)-4-pyridyl]piperazin-1-yl]acetamide], the IC50 stood at 0.029 µM.

In turn, `CC1c2cnc(-c3ncccn3)nc2CCN1c1cc(F)cc(N2CCCC2C(N)=O)n1` (stereo not drawn) [Example 43, 1-[4-fluoro-6-(5-methyl-2-pyrimidin-2-yl-7,8-dihydro-5H-pyrido[4,3-d]pyrimidin-6-yl)-2-pyridyl]pyrrolidine-2-carboxamide] displayed an IC50 of 0.134 µM.

As to `CC1c2cnc(-c3ncccn3)nc2CCN1c1cc(N2CCN(CCC(N)=O)CC2)cc(F)n1` (stereo not drawn) [Example 104, 3-[4-[2-fluoro-6-(5-methyl-2-pyrimidin-2-yl-7,8-dihydro-5H-pyrido[4,3-d]pyrimidin-6-yl)-4-pyridyl]piperazin-1-yl]propanamide], the IC50 was found to be 0.22 µM.

Take `COCC1CCCN1c1cc(F)cc(N2CCc3nc(-c4ncccn4)ncc3C2C)n1` (stereo not drawn) [Example 35, 6-[4-fluoro-6-[2-(methoxymethyl)pyrrolidin-1-yl]-2-pyridyl]-5-methyl-2-pyrimidin-2-yl-7,8-dihydro-5H-pyrido[4,3-d]pyrimidine]: 0.033 µM corresponded to half-maximal inhibition (IC50).

`CC1c2cnc(-c3ncccn3)nc2CCN1c1cc(N(C)C(=O)c2ccccc2)cc(F)n1` (stereo not drawn) [Example 163, N-[2-Fluoro-6-(5-methyl-2-pyrimidin-2-yl-7,8-dihydro-5H-pyrido[4,3-d]pyrimidin-6-yl)-4-pyridyl]-N-methyl-benzamide] gave an IC50 of 0.091 µM. Against the preceding compound, the IC50 is about 2.8-fold higher.

Consider `COC1CN(c2cc(N3CCc4nc(-c5ncccn5)ncc4C3C)cc(F)n2)C1` (stereo not drawn) [Example 148, 6-[2-Fluoro-6-(3-methoxyazetidin-1-yl)-4-pyridyl]-5-methyl-2-pyrimidin-2-yl-7,8-dihydro-5H-pyrido[4,3-d]pyrimidine], for which the midpoint of inhibition, the IC50, lay at 0.021 µM.

`CC1CN(c2cc(F)nc(N3CCc4nc(-c5ncccn5)ncc4C3C)c2)CC(=O)N1` (stereo not drawn) [Example 134, 4-[2-fluoro-6-(5-methyl-2-pyrimidin-2-yl-7,8-dihydro-5H-pyrido[4,3-d]pyrimidin-6-yl)-4-pyridyl]-6-methyl-piperazin-2-one]: half-maximal inhibition (IC50) was put at 0.015 µM. This IC50 and that of the compound before are within 1.5-fold of each other.

Compound `CC1C(=O)NCCN1c1cc(F)nc(N2CCc3nc(-c4ncccn4)ncc3C2C)c1` (stereo not drawn) [Example 117, 4-[2-fluoro-6-(5-methyl-2-pyrimidin-2-yl-7,8-dihydro-5H-pyrido[4,3-d]pyrimidin-6-yl)-4-pyridyl]-3-methyl-piperazin-2-one] came in with an IC50 of 0.106 µM. This IC50 is about 7.1-fold higher than that of the compound before.

`CC(=O)N1CC(Nc2cc(F)nc(N3CCc4nc(-c5ncccn5)ncc4C3C)c2)C1` (stereo not drawn) [Example 140, 1-[3-[[2-fluoro-6-(5-methyl-2-pyrimidin-2-yl-7,8-dihydro-5H-pyrido[4,3-d]pyrimidin-6-yl)-4-pyridyl]amino]azetidin-1-yl]ethanone] showed an IC50 of 0.972 µM.

In the case of `CC1c2cnc(-c3ncccn3)nc2CCN1c1cc(N2CC(CO)CC2=O)cc(F)n1` (stereo not drawn) [Example 153, 1-[2-Fluoro-6-(5-methyl-2-pyrimidin-2-yl-7,8-dihydro-5H-pyrido[4,3-d]pyrimidin-6-yl)-4-pyridyl]-4-(hydroxymethyl)pyrrolidin-2-one], inhibition was half-maximal at 0.032 µM (IC50).

On to `CC1c2cnc(-c3ncccn3)nc2CCN1c1cc(N2CC3(COC3)CC2=O)cc(F)n1` (stereo not drawn) [Example 151, 7-[2-Fluoro-6-(5-methyl-2-pyrimidin-2-yl-7,8-dihydro-5H-pyrido[4,3-d]pyrimidin-6-yl)-4-pyridyl]-2-oxa-7-azaspiro[3.4]octan-6-one], for which the concentration for half-maximal inhibition (IC50) was found to be 0.027 µM.

Compound `CC1CN(c2cc(F)nc(N3CCc4nc(-c5ncccn5)ncc4C3C)c2)CCO1` (stereo not drawn) [Example 4, 4-[2-fluoro-6-(5-methyl-2-pyrimidin-2-yl-7,8-dihydro-5H-pyrido[4,3-d]pyrimidin-6-yl)-4-pyridyl]-2-methyl-morpholine] showed an IC50 of 0.008 µM.

`CC1c2cnc(-c3ncccn3)nc2CCN1c1cc(NC2CCS(=O)(=O)CC2)cc(F)n1` (stereo not drawn) [Example 138, N-(1,1-dioxothian-4-yl)-2-fluoro-6-(5-methyl-2-pyrimidin-2-yl-7,8-dihydro-5H-pyrido[4,3-d]pyrimidin-6-yl)pyridin-4-amine] registered an IC50 of 0.663 µM.

`CC1c2cnc(-c3ncccn3)nc2CCN1c1cc(N2CCC(F)(F)C2)cc(F)n1` (stereo not drawn) [Example 22, 6-[4-(3,3-difluoropyrrolidin-1-yl)-6-fluoro-2-pyridyl]-5-methyl-2-pyrimidin-2-yl-7,8-dihydro-5H-pyrido[4,3-d]pyrimidine]: the IC50 was 0.004 µM.

For the compound `CC(=O)NC1CN(c2cc(F)cc(N3CCc4nc(-c5ncccn5)ncc4C3C)n2)C1` (stereo not drawn) [Example 131, N-[1-[4-fluoro-6-(5-methyl-2-pyrimidin-2-yl-7,8-dihydro-5H-pyrido[4,3-d]pyrimidin-6-yl)-2-pyridyl]azetidin-3-yl]acetamide], the IC50 was 0.043 µM.

Regarding `CC1c2cnc(-c3ncccn3)nc2CCN1c1cc(F)cc(N2CCC(C(N)=O)C2)n1` (stereo not drawn) [Example 45, 1-[4-fluoro-6-(5-methyl-2-pyrimidin-2-yl-7,8-dihydro-5H-pyrido[4,3-d]pyrimidin-6-yl)-2-pyridyl]pyrrolidine-3-carboxamide], inhibition was half-maximal at 0.018 µM (IC50).

`CC1c2cnc(-c3ncccn3)nc2CCN1c1cc(N2CCOC(CC(=O)O)C2)cc(F)n1` (stereo not drawn) [Example 28, 2-[4-[2-fluoro-6-(5-methyl-2-pyrimidin-2-yl-7,8-dihydro-5H-pyrido[4,3-d]pyrimidin-6-yl)-4-pyridyl]morpholin-2-yl]acetic acid] gave an IC50 of 1.81 µM.

`CC1c2cnc(-c3ncccn3)nc2CCN1c1cc(NS(=O)(=O)c2ccccc2)cc(F)n1` (stereo not drawn) [Example 77, N-[2-fluoro-6-(5-methyl-2-pyrimidin-2-yl-7,8-dihydro-5H-pyrido[4,3-d]pyrimidin-6-yl)-4-pyridyl]benzenesulfonamide] gave an IC50 of 0.554 µM.

`CC1c2cnc(-c3ncccn3)nc2CCN1c1cc(F)cc(N2CCN(S(C)(=O)=O)C(C)(C)C2)n1` (stereo not drawn) [Example 99, 6-[6-(3,3-dimethyl-4-methylsulfonyl-piperazin-1-yl)-4-fluoro-2-pyridyl]-5-methyl-2-pyrimidin-2-yl-7,8-dihydro-5H-pyrido[4,3-d]pyrimidine]: the IC50 was found to be 0.026 µM. Compared with the last compound, the IC50 is about 21-fold lower.

For orientation: IC50 means the concentration at which inhibition is half-maximal.
